According to patent US9120791B2, “Indolizine compounds, a process for their preparation and pharmaceutical compositions containing them” (LES LABORATOIRES SERVIER, priority 2012, dated 2015):
Counter-ions that a name gives are not always drawn. Like-named read-outs stand apart in the source and are kept apart here.

Experiments:
Bcl-2 protein = Bcl-2 protein (Homo sapiens (Human), UniProt P10415); test: Inhibition of Bcl-2 by the fluorescence polarisation technique; format: binding; conditions: fluorescence polarisation test; concentration that inhibits fluorescence polarisation by 50%; read-out: IC50 (nM) Bcl-2 FP
Experimental: The fluorescence polarisation tests were carried out on microplates (384 wells). […] After incubation for 2 hours, the fluorescence polarisation is measured.

[1] = test system: RS4;11 leukaemia tumour line; test: In vitro cytotoxicity (Microculture Tetrazolium Assay, 48 hours); format: cell-based; conditions: RS4;11 cells, 48 hours exposure, MTT, concentration that inhibits cell viability by 50%, read-out: IC50 (nM) MTT RS4
Experimental: The cytotoxicity studies were carried out on the RS4;11 leukaemia tumour line.
The cells are distributed onto microplates and exposed to the test compounds for 48 hours.

Chain of Bcl-2 protein (P10415 whole entry): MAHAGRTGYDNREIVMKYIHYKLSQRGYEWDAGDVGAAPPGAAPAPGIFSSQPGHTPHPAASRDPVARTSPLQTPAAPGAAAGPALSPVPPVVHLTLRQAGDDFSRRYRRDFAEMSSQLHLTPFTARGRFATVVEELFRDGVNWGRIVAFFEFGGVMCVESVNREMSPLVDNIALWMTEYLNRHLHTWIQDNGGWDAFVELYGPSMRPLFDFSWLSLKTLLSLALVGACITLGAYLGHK

Q: Which IC50 (Bcl-2 protein) does the source give for `Cc1cccc(N(C(=O)c2cc(-c3cc(Cl)ccc3C(=O)N3Cc4ccccc4C[C@H]3CN3CCOCC3)n3c2CCCC3)c2ccc(O)cc2)c1` [Example 126, 3-(5-Chloro-2-{[(3S)-3-(morpholin-4-ylmethyl)-3,4-dihydroisoquinolin-2(1H)-yl]carbonyl}phenyl)-N-(4-hydroxyphenyl)-N-(3-methylphenyl)-5,6,7,8-tetrahydroindolizine-1-carboxamide hydrochloride] here?
A: The IC50 was 26 nM.

Q: And the IC50 ([1]; Homo sapiens)?
A: The IC50 was 115 nM.

Q: `Cn1ccc2cc(N(C(=O)c3cc(-c4cc(C(F)(F)F)ccc4C(=O)N4Cc5ccccc5C[C@H]4CN4CCOCC4)n4c3CCCC4)c3ccc(O)cc3)ccc21` [Example 47, N-(4-Hydroxyphenyl)-N-(1-methyl-1H-indol-5-yl)-3-[2-[((3S)-3-(4-morpholinylmethyl)-3,4-dihydro-2(1H)-isoquinolinyl)carbonyl]-5-(trifluoromethyl)-phenyl]-5,6,7,8-tetrahydro-1-indolizine carboxamide hydrochloride] was tested. Which IC50 (Bcl-2 protein) did it give?
A: Its IC50 is 58 nM.

Q: What about the IC50 ([1]; Homo sapiens) of the same compound?
A: The IC50 was 194 nM.

Q: What does the source list for `Cn1ccc2cc(N(C(=O)c3cc(-c4cc(Cl)ccc4C(=O)N4Cc5ccccc5C[C@H]4CN4CCCOCC4)n4c3CCCC4)c3ccc(O)cc3)ccc21` [Example 46, 3-{5-Chloro-2-[((3S)-3-(1,4-oxazepan-4-ylmethyl)-3,4-dihydro-2(1H)-isoquinolinyl)carbonyl]phenyl}-N-(4-hydroxyphenyl)-N-(1-methyl-1H-indol-5-yl)-5,6,7,8-tetrahydro-1-indolizine carboxamide hydrochloride]?
A: IC50 (Bcl-2 protein): 21 nM; IC50 ([1]; Homo sapiens): 56.8 nM

Q: With `Cn1ccc2cc(N(C(=O)c3cc(-c4cc(Cl)ccc4C(=O)N4Cc5ccccc5C[C@H]4CN4CCOCC4)n4c3COCC4)c3ccc(O)cc3)ccc21` [Example 86, 6-{5-Chloro-2-[((3S)-3-(4-morpholinylmethyl)-3,4-dihydro-2(1H)-isoquinolinyl)carbonyl]phenyl}-N-(4-hydroxyphenyl)-N-(1-methyl-1H-indol-5-yl)-3,4-dihydro-1H-pyrrolo[2,1-c][1,4]oxazine-8-carboxamide hydrochloride] as the compound, how does the IC50 (Bcl-2 protein) read?
A: Its IC50 is 22 nM.

Q: What about the IC50 ([1]; Homo sapiens) of the same compound?
A: Its IC50 is 29.5 nM.

Q: Which results are given for `O=C(c1cc(-c2cc(F)ccc2C(=O)N2Cc3ccccc3C[C@H]2CN2CCOCC2)n2c1CCCC2)N(c1ccccc1)c1ccc(O)cc1` [Example 25, 3-{5-Fluoro-2-[((3S)-3-(4-morpholinylmethyl)-3,4-dihydro-2(1H)-isoquinolinyl)carbonyl]phenyl}-N-(4-hydroxyphenyl)-N-phenyl-5,6,7,8-tetrahydro-1-indolizine carboxamide hydrochloride]?
A: IC50 (Bcl-2 protein): 29 nM; IC50 ([1]; Homo sapiens): 143 nM

Q: `CN1CCN(C[C@@H]2Cc3ccccc3CN2C(=O)c2ccc(Cl)cc2-c2cc(C(=O)N(c3ccc(O)cc3)c3ccc4c(ccn4C)c3)c3n2CCCC3)CC1=O` [Example 107, 3-(5-Chloro-2-{[(3S)-3-[(4-methyl-3-oxopiperazin-1-yl)methyl]-3,4-dihydroisoquinolin-2(1H)-yl]carbonyl}phenyl)-N-(4-hydroxyphenyl)-N-(1-methyl-1H-indol-5-yl)-5,6,7,8-tetrahydroindolizine-1-carboxamide hydrochloride] was tested. Which IC50 (Bcl-2 protein) did it give?
A: Its IC50 is 7 nM.

Q: And the IC50 ([1]; Homo sapiens)?
A: Its IC50 is 8.29 nM.

Q: What does the source list for `Cn1ccc2cc(N(C(=O)c3cc(-c4cc(Cl)ccc4C(=O)N4Cc5ccccc5C[C@H]4CN4CCOCC4)n4c3CCCC4)c3ccc(O)cc3)cnc21` [Example 103, 3-(5-Chloro-2-{[(3S)-3-(morpholin-4-ylmethyl)-3,4-dihydroisoquinolin-2(1H)-yl]carbonyl}phenyl)-N-(4-hydroxyphenyl)-N-(1-methyl-1H-pyrrolo[2,3-b]-pyridin-5-yl)-5,6,7,8-tetrahydroindolizine-1-carboxamide]?
A: IC50 (Bcl-2 protein): 6 nM; IC50 ([1]; Homo sapiens): 16.8 nM

Q: Which IC50 (Bcl-2 protein) does the source give for `CN1CCN(C[C@@H]2Cc3ccccc3CN2C(=O)c2cc3c(cc2-c2cc(C(=O)N(c4ccc(O)cc4)c4ccc5c(ccn5C)c4)c4n2CCCC4)OCO3)CC1` [Example 13, N-(4-Hydroxyphenyl)-N-(1-methyl-1H-indol-5-yl)-3-{6-[((3S)-3-[(4-methyl-1-piperazinyl)methyl]-3,4-dihydro-2(1H)-isoquinolinyl)carbonyl]-1,3-benzodioxol-5-yl}-5,6,7,8-tetrahydro-1-indolizine carboxamide bis(hydrochloride)] here?
A: Its IC50 is 12 nM.

Q: What about the IC50 ([1]; Homo sapiens) of the same compound?
A: The IC50 was 8.63 nM.

Q: `Cl.[2H]C1([2H])Oc2cc(C(=O)N3Cc4ccccc4C[C@H]3CN3CCOCC3)c(-c3cc(C(=O)N(c4ccc(O)cc4)c4ccc5c(cnn5C)c4)c4n3CCCC4)cc2O1` [Example 50, N-(4-Hydroxyphenyl)-N-(1-methyl-1H-indazol-5-yl)-3-{2,2-dideuterio-6-[((3S)-3-(4-morpholinylmethyl)-3,4-dihydro-2(1H)-isoquinolinyl)carbonyl]-1,3-benzodioxol-5-yl}-5,6,7,8-tetrahydro-1-indolizine carboxamide hydrochloride] was tested. Which IC50 (Bcl-2 protein) did it give?
A: Its IC50 is 13 nM.

Q: What about the IC50 ([1]; Homo sapiens) of the same compound?
A: Its IC50 is 4.01 nM.

Q: How did the IC50 (Bcl-2 protein) turn out when `O=C(c1cc(-c2cc3c(cc2C(=O)N2Cc4ccccc4C[C@H]2CN2CCN(CC(F)(F)F)CC2)OCO3)n2c1CCCC2)N(c1ccccc1)c1ccc(O)cc1` [Example 127, N-(4-Hydroxyphenyl)-N-phenyl-3-(6-{[(3S)-3-{[4-(2,2,2-trifluoroethyl)-piperazin-1-yl]methyl}-3,4-dihydroisoquinolin-2(1H)-yl]carbonyl}-1,3-benzodioxol-5-yl)-5,6,7,8-tetrahydroindolizine-1-carboxamide hydrochloride] was run?
A: Its IC50 is 26 nM.

Q: What about the IC50 ([1]; Homo sapiens) of the same compound?
A: Its IC50 is 129 nM.

Q: Which IC50 (Bcl-2 protein) does the source give for `Cn1ncc2cc(N(C(=O)c3cc(-c4cc5c(cc4C(=O)N4Cc6ccccc6C[C@H]4CN4CCOCC4)OCO5)n4c3CCCC4)c3ccc(O)cc3)ccc21` [Example 94, N-(4-Hydroxyphenyl)-N-(1-methyl-1H-indazol-5-yl)-3-(6-{[(3S)-3-(morpholin-4-ylmethyl)-3,4-dihydroisoquinolin-2(1H)-yl]carbonyl}-1,3-benzodioxol-5-yl)-5,6,7,8-tetrahydroindolizine-1-carboxamide hydrochloride] here?
A: Its IC50 is 3 nM.

Q: What about the IC50 ([1]; Homo sapiens) of the same compound?
A: Its IC50 is 8.16 nM.

Q: Which results are given for `CN1CCc2cc(N(C(=O)c3cc(-c4cc(Br)ccc4C(=O)N4Cc5ccccc5C[C@H]4CN4CCOCC4)n4c3CCCC4)c3ccc(O)cc3)ccc21` [Example 19, 3-{5-Bromo-2-[((3S)-3-(4-morpholinylmethyl)-3,4-dihydro-2(1H)-isoquinolinyl)carbonyl]phenyl}-N-(4-hydroxyphenyl)-N-(1-methyl-2,3-dihydro-1H-indol-5-yl)-5,6,7,8-tetrahydro-1-indolizine carboxamide hydrochloride]?
A: IC50 (Bcl-2 protein): 27 nM; IC50 ([1]; Homo sapiens): 42.3 nM

Q: With `Cn1ccc2cc(N(C(=O)c3cc(-c4cc5c(cc4C(=O)N4Cc6ccccc6C[C@H]4CN4CCOCC4)OCO5)n4c3CNCC4)c3ccc(O)cc3)ccc21` [Example 74, N-(4-Hydroxyphenyl)-N-(1-methyl-1H-indol-5-yl)-6-{6-[((3S)-3-(4-morpholinylmethyl)-3,4-dihydro-2(1H)-isoquinolinyl)carbonyl]-1,3-benzodioxol-5-yl}-1,2,3,4-tetrahydropyrrolo[1,2-a]pyrazine-8-carboxamide bis(hydrochloride)] as the compound, how does the IC50 (Bcl-2 protein) read?
A: Its IC50 is 24 nM.

Q: And the IC50 ([1]; Homo sapiens)?
A: Its IC50 is 241 nM.

Q: With `CN1CCCc2cc(N(C(=O)c3cc(-c4cc5c(cc4C(=O)N4Cc6ccccc6C[C@H]4CN4CCOCC4)OCCO5)n4ccccc34)c3ccc(O)cc3)ccc21` [Example 69, N-(4-Hydroxyphenyl)-N-(1-methyl-1,2,3,4-tetrahydro-6-quinolinyl)-3-{7-[((3S)-3-(4-morpholinylmethyl)-3,4-dihydro-2(1H)-isoquinolinyl)carbonyl]-2,3-dihydro-1,4-benzodioxin-6-yl}-1-indolizine carboxamide hydrochloride] as the compound, how does the IC50 (Bcl-2 protein) read?
A: Its IC50 is 26 nM.

Q: And the IC50 ([1]; Homo sapiens)?
A: Its IC50 is 16.7 nM.

Q: For `CN1CCN(C[C@@H]2Cc3ccccc3CN2C(=O)c2cc3c(cc2-c2cc(C(=O)N(c4ccccc4)c4ccc(O)cc4)c4n2CCCC4)OCO3)CC1=O` [Example 128, N-(4-Hydroxyphenyl)-3-(6-{[(3S)-3-[(4-methyl-3-oxopiperazin-1-yl)methyl]-3,4-dihydroisoquinolin-2(1H)-yl]carbonyl}-1,3-benzodioxol-5-yl)-N-phenyl-5,6,7,8-tetrahydroindolizine-1-carboxamide hydrochloride], which IC50 (Bcl-2 protein) is on record?
A: Its IC50 is 10 nM.

Q: And the IC50 ([1]; Homo sapiens)?
A: The IC50 was 63.4 nM.

Q: What does the source list for “Tert-butyl 8-{[4-hydroxy(1-methyl-1H-indol-5-yl)anilino]carbonyl}-6-{6-[((3S)-3-(4-morpholinylmethyl)-3,4-dihydro-2(1H)-isoquinolinyl)carbonyl]-1,3-benzodioxol-5-yl}-3,4-dihydropyrrolo[1,2-a]pyrazine-2(1H)-carboxylate [Example 72]”?
A: IC50 (Bcl-2 protein): 220 nM; IC50 [1]: 270 nM

Q: What does the source list for `O=C(c1cc(-c2cc(Cl)ccc2C(=O)N2Cc3ccccc3C[C@H]2CN2CCOCC2)n2c1CCCC2)N(c1ccc(O)cc1)c1ccc(F)cc1` [Example 111, 3-(5-Chloro-2-{[(3S)-3-(morpholin-4-ylmethyl)-3,4-dihydroisoquinolin-2(1H)-yl]carbonyl}phenyl)-N-(4-fluorophenyl)-N-(4-hydroxyphenyl)-5,6,7,8-tetrahydroindolizine-1-carboxamide hydrochloride]?
A: IC50 (Bcl-2 protein): 15 nM; IC50 ([1]; Homo sapiens): 81.5 nM

Q: What does the source list for `Cn1ccc2cc(N(C(=O)c3cc(-c4cc(F)ccc4C(=O)N4Cc5ccccc5C[C@H]4CN4CCOCC4)n4c3CCCC4)c3ccc(O)cc3)ccc21` [Example 24, 3-{5-Fluoro-2-[((3S)-3-(4-morpholinylmethyl)-3,4-dihydro-2(1H)-isoquinolinyl)carbonyl]phenyl}-N-(4-hydroxyphenyl)-N-(1-methyl-1H-indol-5-yl)-5,6,7,8-tetrahydro-1-indolizine carboxamide hydrochloride]?
A: IC50 (Bcl-2 protein): 17 nM; IC50 ([1]; Homo sapiens): 29.8 nM
